In ChEMBL document CHEMBL6103578, “Design and synthesis three novel series of derivatives using natural acetylcholinesterase inhibitor-RLMS as template and in vitro, in vivo and in silico activities verification” (Eur J Med Chem, 2025) one finds Activity, IC50 and viability data, which are given here for 32 molecules.

Test [1] has as its system SH-SY5Y. In words: Neuroprotective effect against H2O2-induced cell injury in human SH-SY5Y cells assessed as cell survival at 25 to 100 uM preincubated for 1 hr followed by H2O2 addition measured after 2 hrs by MTT assay (reference value: 57.76 %). In kind it is functional. Particulars: dose 25-100 µM, time 3 hrs.
In test [2] the target is Acetylcholinesterase (Homo sapiens, UniProt P22303). In words: Inhibition of AChE (unknown origin) using ATCI as substrate preincubated for 20 mins followed by substrate addition measured after 30 mins by DTNB assay.
Sequence of Acetylcholinesterase (P22303 whole entry): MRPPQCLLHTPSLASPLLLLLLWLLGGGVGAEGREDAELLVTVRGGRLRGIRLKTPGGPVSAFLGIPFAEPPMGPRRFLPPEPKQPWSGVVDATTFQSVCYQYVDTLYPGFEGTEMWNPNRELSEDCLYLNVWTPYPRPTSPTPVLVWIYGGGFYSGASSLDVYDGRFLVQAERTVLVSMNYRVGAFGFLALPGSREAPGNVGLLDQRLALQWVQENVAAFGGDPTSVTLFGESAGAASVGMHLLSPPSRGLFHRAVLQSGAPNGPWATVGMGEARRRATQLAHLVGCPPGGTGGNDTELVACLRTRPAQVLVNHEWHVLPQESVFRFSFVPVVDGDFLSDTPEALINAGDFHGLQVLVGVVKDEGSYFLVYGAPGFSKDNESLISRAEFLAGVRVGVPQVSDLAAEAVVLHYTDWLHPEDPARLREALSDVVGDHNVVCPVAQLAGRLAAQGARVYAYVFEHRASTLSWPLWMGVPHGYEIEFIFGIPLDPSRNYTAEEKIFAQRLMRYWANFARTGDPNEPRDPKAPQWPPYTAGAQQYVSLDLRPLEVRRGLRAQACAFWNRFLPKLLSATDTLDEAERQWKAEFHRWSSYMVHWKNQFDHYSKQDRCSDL
In test [3] the test system is SH-SY5Y. In words: Neuroprotective effect against H2O2-induced cell injury in human SH-SY5Y cells assessed as cell survival at 25 uM preincubated for 1 hr followed by H2O2 addition measured after 2 hrs by MTT assay (reference value: 57.76 %). In kind it is functional. Particulars: time 3 hrs, read-out: Activity.

On to `C[C@@H]1CC[C@]2(C(=O)NCc3ccccc3Br)CC[C@]3(C)C(=CC[C@@H]4[C@@]5(C)C[C@@H](O)[C@H](O)[C@@](C)(CO)[C@@H]5CC[C@]43C)[C@@H]2[C@]1(C)O`, for which, in test [1], the Activity is on record as >57.76%. In test [2], this molecule came in with an IC50 of 47.7 µM.

Regarding `C[C@@H]1CC[C@]2(C(=O)NC3CCCCC3)CC[C@]3(C)C(=CC[C@@H]4[C@@]5(C)C[C@@H](O)[C@H](O)[C@@](C)(CO)[C@@H]5CC[C@]43C)[C@@H]2[C@]1(C)O`, the Activity in test [1] is reported as >57.76%. This molecule yielded an IC50 in test [2] of 80.4 µM.

`COc1ccc(C(=O)O[C@]2(C)[C@H](C)CC[C@]3(C(=O)O)CC[C@]4(C)C(=CC[C@@H]5[C@@]6(C)C[C@@H](O)[C@H](O)[C@@](C)(CO)[C@@H]6CC[C@]54C)[C@@H]32)cc1`: the viability at 25 µM in test [3] is 72.5%. For the same molecule, the Activity in test [1] is given as >57.76%. The same molecule showed an IC50 in test [2] of 63.5 µM.

Take `CCCCCC(=O)OC[C@]1(C)C=C(C=O)[C@@]2(C)[C@H]1CC[C@]1(C)[C@@H]2CC=C2[C@H]3[C@](C(=O)O)(CC[C@@H](C)[C@@]3(C)O)CC[C@]21C`: the Activity in test [1] is on record as >57.76%. In test [2], the IC50 is > 100 µM.

In the case of `C[C@@H]1CC[C@]2(C(=O)O)CC[C@]3(C)C(=CC[C@@H]4[C@@]5(C)C[C@@H](OC(=O)c6ccc(C(F)(F)F)cc6)[C@H](OC(=O)c6ccc(C(F)(F)F)cc6)[C@@](C)(CO)[C@@H]5CC[C@]43C)[C@@H]2[C@]1(C)O`, in test [1], the Activity is recorded as >57.76%. For the same molecule, in test [2], the IC50 came to 43.4 µM.

On to `CCCCCCNC(=O)[C@]12CC[C@@H](C)[C@@](C)(O)[C@H]1C1=CC[C@@]3(C)[C@@](C)(CC[C@H]4[C@](C)(CO)[C@@H](O)[C@H](O)C[C@@]43C)[C@]1(C)CC2`, for which the Activity in test [1] is >57.76%. Moreover, the IC50 in test [2] was > 100 µM.

As for `C[C@@H]1CC[C@]2(C(=O)O)CC[C@]3(C)C(=CC[C@@H]4[C@@]5(C)C[C@@H](OC(=O)c6ccc(Cl)cc6)[C@H](O)[C@@](C)(CO)[C@@H]5CC[C@]43C)[C@@H]2[C@]1(C)OC(=O)c1ccc(Cl)cc1`, the Activity in test [1] is <57.76%. In test [2], this molecule had an IC50 of 54.3 µM.

In the case of `C[C@@H]1CC[C@]2(C(=O)O)CC[C@]3(C)C(=CC[C@@H]4[C@@]5(C)C[C@@H](OC(=O)CCc6ccccc6)[C@H](O)[C@@](C)(CO)[C@@H]5CC[C@]43C)[C@@H]2[C@]1(C)O`, the Activity in test [1] is >57.76%. This molecule came in with an IC50 in test [2] of 11.5 µM.

As for `C[C@@H]1CC[C@]2(C(=O)O)CC[C@]3(C)C(=CC[C@@H]4[C@@]5(C)C(C=O)=C[C@@](C)(COC(=O)c6ccc(Cl)cc6)[C@@H]5CC[C@]43C)[C@@H]2[C@]1(C)OC(=O)c1ccc(Cl)cc1`, the Activity in test [1] is >57.76%. In test [2], the IC50 is > 100 µM.

Take `C[C@@H]1CC[C@]2(C(=O)NCCc3ccc(Cl)c(Cl)c3)CC[C@]3(C)C(=CC[C@@H]4[C@@]5(C)C[C@@H](O)[C@H](O)[C@@](C)(CO)[C@@H]5CC[C@]43C)[C@@H]2[C@]1(C)O`: the Activity in test [1] is >57.76%. In test [2], the 50% inhibitory concentration (IC50) is > 100 µM.

As for `C[C@@H]1CC[C@]2(C(=O)O)CC[C@]3(C)C(=CC[C@@H]4[C@@]5(C)C(C=O)=C[C@@](C)(COC(=O)c6ccc(F)cc6)[C@@H]5CC[C@]43C)[C@@H]2[C@]1(C)O`, the Activity in test [1] is recorded as <57.76%. This molecule registered a half-maximal inhibitory concentration (IC50) in test [2] of 71.9 µM.

Take `C[C@@H]1CC[C@]2(C(=O)NCCc3c[nH]c4ccccc34)CC[C@]3(C)C(=CC[C@@H]4[C@@]5(C)C[C@@H](O)[C@H](O)[C@@](C)(CO)[C@@H]5CC[C@]43C)[C@@H]2[C@]1(C)O`: in test [3], the viability at 25 µM turned out to be 72.5%. The Activity in test [1] is >57.76%. In addition, the half-inhibitory concentration (IC50) in test [2] stood at 51.3 µM.

As for `CCCC(=O)OC[C@]1(C)C=C(C=O)[C@@]2(C)[C@H]1CC[C@]1(C)[C@@H]2CC=C2[C@H]3[C@](C(=O)O)(CC[C@@H](C)[C@@]3(C)O)CC[C@]21C`, the Activity in test [1] was <57.76%. In addition, the half-maximal inhibitory concentration (IC50) in test [2] is > 100 µM.

With `C[C@@H]1CC[C@]2(C(=O)O)CC[C@]3(C)C(=CC[C@@H]4[C@@]5(C)C(C=O)=C[C@@](C)(COC(=O)c6ccc(C(F)(F)F)cc6)[C@@H]5CC[C@]43C)[C@@H]2[C@]1(C)O`, in test [1], the Activity is reported as >57.76%. Besides, the half-inhibitory concentration (IC50) in test [2] was > 100 µM.

Regarding `C[C@@H]1CC[C@]2(C(=O)NCc3cccc(Cl)c3)CC[C@]3(C)C(=CC[C@@H]4[C@@]5(C)C[C@@H](O)[C@H](O)[C@@](C)(CO)[C@@H]5CC[C@]43C)[C@@H]2[C@]1(C)O`, in test [1], the Activity is >57.76%. This molecule also returned an IC50 in test [2] of 63 µM.

Regarding `C[C@@H]1CC[C@]2(C(=O)NCc3ccccc3)CC[C@]3(C)C(=CC[C@@H]4[C@@]5(C)C[C@@H](O)[C@H](O)[C@@](C)(CO)[C@@H]5CC[C@]43C)[C@@H]2[C@]1(C)O`, the viability at 25 µM in test [3] is 72.5%. Besides, the Activity in test [1] is on record as >57.76%. The IC50 in test [2] was determined as 65.1 µM.

`Cc1c(C)c2c(c(C)c1O)CCC(C)(C(=O)O)O2` (stereo not given) [TROLOX]: the viability at 25 µM in test [3] was determined as 72.6%. For the same molecule, the Activity in test [1] is given as >57.76%.

On to `COc1ccc(C(=O)O[C@]2(C)[C@H](C)CC[C@]3(C(=O)O)CC[C@]4(C)C(=CC[C@@H]5[C@@]6(C)C(C=O)=C[C@@](C)(CO)[C@@H]6CC[C@]54C)[C@@H]32)cc1`, for which, in test [1], the Activity is recorded as >57.76%. In addition, the half-maximal inhibitory concentration (IC50) in test [2] is > 100 µM.

With `COc1ccc(C(=O)OC[C@]2(C)C=C(C=O)[C@@]3(C)[C@H]2CC[C@]2(C)[C@@H]3CC=C3[C@H]4[C@](C(=O)O)(CC[C@@H](C)[C@@]4(C)OC(=O)c4ccc(OC)cc4)CC[C@]32C)cc1`, in test [1], the Activity is >57.76%. In test [2], this molecule registered an IC50 of 70.2 µM.

Regarding `C[C@@H]1CC[C@]2(C(=O)O)CC[C@]3(C)C(=CC[C@@H]4[C@@]5(C)C[C@@H](OC(=O)c6ccc(Cl)cc6)[C@H](OC(=O)c6ccc(Cl)cc6)[C@@](C)(COC(=O)c6ccc(Cl)cc6)[C@@H]5CC[C@]43C)[C@@H]2[C@]1(C)O`, the Activity in test [1] is recorded as >57.76%. In test [2], this molecule yielded an IC50 of 5.91 µM.

Turning to `C[C@@H]1CC[C@]2(C(=O)NCc3cccc(F)c3)CC[C@]3(C)C(=CC[C@@H]4[C@@]5(C)C[C@@H](O)[C@H](O)[C@@](C)(CO)[C@@H]5CC[C@]43C)[C@@H]2[C@]1(C)O`, in test [1], the Activity is <57.76%. In test [2], the IC50 was > 100 µM.

`C[C@@H]1CC[C@]2(C(=O)NCc3ccccc3F)CC[C@]3(C)C(=CC[C@@H]4[C@@]5(C)C[C@@H](O)[C@H](O)[C@@](C)(CO)[C@@H]5CC[C@]43C)[C@@H]2[C@]1(C)O`: the Activity in test [1] was <57.76%. The IC50 in test [2] is > 100 µM.

On to `C[C@@H]1CC[C@]2(C(=O)NCc3cccc(Br)c3)CC[C@]3(C)C(=CC[C@@H]4[C@@]5(C)C[C@@H](O)[C@H](O)[C@@](C)(CO)[C@@H]5CC[C@]43C)[C@@H]2[C@]1(C)O`, for which, in test [3], the viability at 25 µM worked out at 72.5%. Also, the Activity in test [1] is recorded as >57.76%. This molecule returned an IC50 in test [2] of 78 µM.

For the molecule `C[C@@H]1CC[C@]2(C(=O)O)CC[C@]3(C)C(=CC[C@@H]4[C@@]5(C)C[C@@H](OC(=O)c6ccc(Cl)cc6)[C@H](OC(=O)c6ccc(Cl)cc6)[C@@](C)(CO)[C@@H]5CC[C@]43C)[C@@H]2[C@]1(C)O`, the viability at 25 µM in test [3] amounted to 72.5%. Moreover, the Activity in test [1] was >57.76%. The same molecule registered an IC50 in test [2] of 21.2 µM.

Regarding `C[C@@H]1CC[C@]2(C(=O)O)CC[C@]3(C)C(=CC[C@@H]4[C@@]5(C)C[C@@H](O)OCC(C)(C=O)[C@@H]5CC[C@]43C)[C@@H]2[C@]1(C)O` (stereo not given in full), the Activity in test [1] is >57.76%. Further, the concentration for half-maximal inhibition (IC50) in test [2] was > 100 µM.

For `C[C@@H]1CC[C@]2(C(=O)NCc3ccc(Br)cc3)CC[C@]3(C)C(=CC[C@@H]4[C@@]5(C)C[C@@H](O)[C@H](O)[C@@](C)(CO)[C@@H]5CC[C@]43C)[C@@H]2[C@]1(C)O`, the Activity in test [1] was >57.76%. For the same molecule, the 50% inhibitory concentration (IC50) in test [2] was found to be 84.5 µM.

Take `C[C@@H]1CC[C@]2(C(=O)O)CC[C@]3(C)C(=CC[C@@H]4[C@@]5(C)C[C@@H](O)[C@H](O)[C@@](C)(CO)[C@@H]5CC[C@]43C)[C@@H]2[C@]1(C)O`: the viability at 25 µM in test [3] amounted to 72.8%. The Activity in test [1] was >57.76%. In test [2], this molecule showed an IC50 of 23.2 µM.

For `C[C@@H]1CC[C@]2(C(=O)O)CC[C@]3(C)C(=CC[C@@H]4[C@@]5(C)C[C@@H](O)[C@H](OC(=O)c6ccc(C(F)(F)F)cc6)[C@@](C)(CO)[C@@H]5CC[C@]43C)[C@@H]2[C@]1(C)O`, the Activity in test [1] is on record as >57.76%. In test [2], the half-maximal inhibitory concentration (IC50) was > 100 µM.

For the molecule `C[C@@H]1CC[C@]2(C(=O)O)CC[C@]3(C)C(=CC[C@@H]4[C@@]5(C)C(C=O)=C[C@@](C)(CO)[C@@H]5CC[C@]43C)[C@@H]2[C@]1(C)O`, in test [1], the Activity is recorded as >57.76%. For the same molecule, in test [2], the 50% inhibitory concentration (IC50) was > 100 µM.

Turning to `C[C@@H]1CC[C@]2(C(=O)NCc3ccc(Cl)cc3)CC[C@]3(C)C(=CC[C@@H]4[C@@]5(C)C[C@@H](O)[C@H](O)[C@@](C)(CO)[C@@H]5CC[C@]43C)[C@@H]2[C@]1(C)O`, the Activity in test [1] is >57.76%. Inhibition in test [2] was half-maximal at 64.8 µM (IC50).

For `C[C@@H]1CC[C@]2(C(=O)O)CC[C@]3(C)C(=CC[C@@H]4[C@@]5(C)C(C=O)=C[C@@](C)(COC(=O)CCc6ccccc6)[C@@H]5CC[C@]43C)[C@@H]2[C@]1(C)O`, the Activity in test [1] is recorded as >57.76%. This molecule had an IC50 in test [2] of 46.2 µM.

Consider `C[C@@H]1CC[C@]2(C(=O)NCc3ccc(F)cc3)CC[C@]3(C)C(=CC[C@@H]4[C@@]5(C)C[C@@H](O)[C@H](O)[C@@](C)(CO)[C@@H]5CC[C@]43C)[C@@H]2[C@]1(C)O`, for which the Activity in test [1] is reported as <57.76%. Further, in test [2], the IC50 is > 100 µM.
